These results are taken from PubChem BioAssay AID248 (DTP/NCI, 2004).

This experiment relates to L1210 leukemia ip in BDF1 mice, survival T/C. Description: NCI In Vivo Anticancer Drug Screen. Data for tumor model L1210 Leukemia (intraperitoneal) in B6D2F1 (BDF1) mice. The note with it: endpoint: mean survival time, higher = longer survival. In outline:
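In this screen, tumor-bearing mice given compound are compared to those given vehicle, and their survival values are reported as a treated-to-control quotient.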

[1] abbreviates: dose: 100.0 mg/kg/injection, schedule: Q04DX003 (ip), vehicle: saline.
Where [2] appears, read: dose: 200.0 mg/kg/injection, schedule: Q04DX003 (ip), vehicle: saline.
The mark [3] stands for this setting: dose: 25.0 mg/kg/injection, schedule: Q01DX009 (ip), vehicle: Klucel (hydroxypropylcellulose) (HPC).
Where [4] appears, read: dose: 50.0 mg/kg/injection, schedule: Q01DX009 (ip), vehicle: Klucel (hydroxypropylcellulose) (HPC).
Where [5] appears, read: dose: 100.0 mg/kg/injection, schedule: Q04DX003 (ip), vehicle: Klucel (hydroxypropylcellulose) (HPC).
The mark [6] stands for this setting: dose: 200.0 mg/kg/injection, schedule: Q04DX003 (ip), vehicle: Klucel (hydroxypropylcellulose) (HPC).
Setting [7] is: dose: 400.0 mg/kg/injection, schedule: Q04DX003 (ip), vehicle: Klucel (hydroxypropylcellulose) (HPC).
Where [8] appears, read: dose: 25.0 mg/kg/injection, schedule: Q04DX003 (ip), vehicle: Klucel (hydroxypropylcellulose) (HPC).
The mark [9] stands for this setting: dose: 50.0 mg/kg/injection, schedule: Q04DX003 (ip), vehicle: Klucel (hydroxypropylcellulose) (HPC).
The mark [10] stands for this setting: dose: 50.0 mg/kg/injection, schedule: Q04DX003 (ip), vehicle: saline.
Where [11] appears, read: dose: 100.0 mg/kg/injection, schedule: Q01DX001 (ip), vehicle: saline.
[12] abbreviates: dose: 200.0 mg/kg/injection, schedule: Q01DX001 (ip), vehicle: saline.

Where “and” joins values, the source holds several entries; their conditions need not be identical. Equal entries are not always repeated. Toxic doses and inconclusive results are not listed.

As for `CC1CCC(C)(C)CC1(C)c1cc(CN(C)C)c(O)c(CN(C)C)c1` (stereo not drawn), the T/C is 93 % of control (dose: 12.5 mg/kg/injection, schedule: Q04DX003 (ip), vehicle: acetone); 98 % of control (dose: 25.0 mg/kg/injection, schedule: Q04DX003 (ip), vehicle: acetone); 90 % of control (dose: 50.0 mg/kg/injection, schedule: Q04DX003 (ip), vehicle: acetone).

On to `Nc1nc(SCC(=O)c2ccccc2)c2[nH]cnc2n1`, for which the T/C by setting is: (dose: 117.0 mg/kg/injection, schedule: Q01DX009 (ip), vehicle: saline with Tween-80) 153 % of control; (dose: 176.0 mg/kg/injection, schedule: Q01DX009 (ip), vehicle: saline with Tween-80) 151 % of control; (dose: 200.0 mg/kg/injection, schedule: Q01DX009 (ip), vehicle: saline with Tween-80) 104 % of control; (dose: 264.0 mg/kg/injection, schedule: Q01DX009 (ip), vehicle: saline with Tween-80) 156 % of control; (dose: 400.0 mg/kg/injection, schedule: Q01DX009 (ip), vehicle: saline with Tween-80) 152 % of control.

`ClC1C2CC3C(C2)C13` (stereo not drawn): the T/C is 95 % of control (dose: 100.0 mg/kg/injection, schedule: Q01DX001 (ip), vehicle: carboxymethylcellulose (CMC)); 95 % of control (dose: 200.0 mg/kg/injection, schedule: Q01DX001 (ip), vehicle: carboxymethylcellulose (CMC)); 95 % of control (dose: 400.0 mg/kg/injection, schedule: Q01DX001 (ip), vehicle: carboxymethylcellulose (CMC)).

Regarding `CN(C)Cc1cc(Cl)cc(CN(C)C)c1O`, the T/C (dose: 100.0 mg/kg/injection, schedule: Q04DX002 (ip), vehicle: saline with Tween-80) is 104 % of control; the T/C under setting [1] was 99 % of control; the T/C under setting [2] is 104 % of control.

On to `CSCCC(NC(C)=O)C(=O)O` (stereo not drawn), for which the T/C is 99 % of control (dose: 100.0 mg/kg/injection, schedule: Q01DX009 (ip), vehicle: saline); 94 % of control under setting [1]; 86 % of control (dose: 200.0 mg/kg/injection, schedule: Q01DX009 (ip), vehicle: saline); 91 % of control under setting [2]; 96 % of control (dose: 400.0 mg/kg/injection, schedule: Q01DX009 (ip), vehicle: saline); 91 % of control (dose: 400.0 mg/kg/injection, schedule: Q04DX003 (ip), vehicle: saline).

As for `N#Cc1nccnc1C#N`, the T/C is, setting by setting: (dose: 25.0 mg/kg/injection, schedule: Q04DX002 (ip), vehicle: DMSO) 96 % of control; (dose: 50.0 mg/kg/injection, schedule: Q04DX002 (ip), vehicle: DMSO) 100 % of control; (dose: 100.0 mg/kg/injection, schedule: Q04DX002 (ip), vehicle: DMSO) 100 % of control.

Regarding `O=C(CN1CCOCC1)Nc1ccc(S(=O)(=O)c2ccc([N+](=O)[O-])cc2)cc1`, the T/C runs as follows: (dose: 75.0 mg/kg/injection, schedule: Q01DX001 (ip), vehicle: acetone) 93 % of control; (dose: 150.0 mg/kg/injection, schedule: Q01DX001 (ip), vehicle: acetone) 93 % of control.

Consider `O=C(Nc1ccccc1F)Nc1ccccc1Cl`, for which the T/C is 95 % of control under setting [3]; 104 % of control under setting [4]; 96 % of control (dose: 100.0 mg/kg/injection, schedule: Q01DX009 (ip), vehicle: Klucel (hydroxypropylcellulose) (HPC)); 87 % of control under setting [5]; 93 % of control and 92 % of control (dose: 200.0 mg/kg/injection, schedule: Q01DX009 (ip), vehicle: Klucel (hydroxypropylcellulose) (HPC)); 89 % of control under setting [6]. For the same compound, under “dose: 400.0 mg/kg/injection, schedule: Q01DX009 (ip), vehicle: Klucel (hydroxypropylcellulose) (HPC)”, the T/C was 95 % of control and 91 % of control.

For the compound `CCCn1/c(=N\N=O)sc2ccccc21`, the T/C is, setting by setting: under setting [5], 93 % of control; under setting [6], 95 % of control; under setting [7], 92 % of control.

Consider `Cc1c(CCl)c(C)c(CCl)c(C)c1CCl`, for which the T/C is, setting by setting: (dose: 12.0 mg/kg/injection, schedule: Q04DX003 (ip), vehicle: Klucel (hydroxypropylcellulose) (HPC)) 105 % of control; under setting [3], 88 % of control; under setting [8], 100 % of control; under setting [4], 100 % of control; under setting [9], 100 % of control.

Consider `Nc1nc(O)c(N2C(=O)c3ccccc3C2=O)c(=O)[nH]1`, for which the T/C reads like this: under setting [8], 93 % of control; under setting [9], 96 % of control; under setting [5], 96 % of control.

Take `CCN(CC)CC(=O)NCC(CCCCN1CCCCC1)(c1cccc2ccccc12)C(C)C` (stereo not drawn): the T/C (dose: 12.5 mg/kg/injection, schedule: Q04DX003 (ip), vehicle: saline) was 104 % of control; the T/C (dose: 25.0 mg/kg/injection, schedule: Q04DX003 (ip), vehicle: saline) was 102 % of control; the T/C under setting [10] was 102 % of control.

For the compound `COc1cccc(CCN)c1`, the T/C by setting is: (dose: 50.0 mg/kg/injection, schedule: Q01DX001 (ip), vehicle: saline) 116 % of control; under setting [11], 110 % of control; under setting [12], 118 % of control.

Turning to `O=[n+]1c2c(n([O-])c3ccccc31)-c1cccc3cccc-2c13`, the T/C reads like this: under setting [10], 96 % of control; under setting [11], 88 % of control; under setting [1], 93 % of control; (dose: 125.0 mg/kg/injection, schedule: Q01DX Z (ip), vehicle: methylcellulose (MC)) 98 % of control; under setting [12], 94 % of control; under setting [2], 93 % of control.

In the case of `CC1CN1c1cc(O)c(N2CC2C)cc1O` (stereo not drawn), the T/C was 100 % of control (dose: 0.25 mg/kg/injection, schedule: Q01DX009 (ip), vehicle: saline); 92 % of control (dose: 0.5 mg/kg/injection, schedule: Q01DX009 (ip), vehicle: saline); 110 % of control (dose: 0.5 mg/kg/injection, schedule: Q01DX Z (ip), vehicle: methylcellulose (MC)); 111 % of control (dose: 0.8 mg/kg/injection, schedule: Q01DX Z (ip), vehicle: methylcellulose (MC)); 118 % of control (dose: 1.0 mg/kg/injection, schedule: Q01DX009 (ip), vehicle: saline); 115 % of control (dose: 1.2 mg/kg/injection, schedule: Q01DX Z (ip), vehicle: carboxymethylcellulose (CMC)). Moreover, the T/C reads like this: (dose: 1.2 mg/kg/injection, schedule: Q01DX Z (ip), vehicle: methylcellulose (MC)) 109 % of control and 123 % of control; (dose: 1.8 mg/kg/injection, schedule: Q01DX Z (ip), vehicle: carboxymethylcellulose (CMC)) 121 % of control; (dose: 2.0 mg/kg/injection, schedule: Q01DX009 (ip), vehicle: saline) 118 % of control; (dose: 2.7 mg/kg/injection, schedule: Q01DX Z (ip), vehicle: methylcellulose (MC)) 171 % of control; (dose: 4.0 mg/kg/injection, schedule: Q01DX Z (ip), vehicle: carboxymethylcellulose (CMC)) 120 % of control; (dose: 4.0 mg/kg/injection, schedule: Q01DX Z (ip), vehicle: methylcellulose (MC)) 109 % of control and 155 % of control and 212 % of control. Also, the T/C is 150 % of control (dose: 5.0 mg/kg/injection, schedule: Q01DX009 (ip), vehicle: saline); 108 % of control (dose: 6.0 mg/kg/injection, schedule: Q01DX Z (ip), vehicle: carboxymethylcellulose (CMC)); 172 % of control and 180 % of control (dose: 6.0 mg/kg/injection, schedule: Q01DX Z (ip), vehicle: methylcellulose (MC)); 155 % of control and 174 % of control (dose: 9.0 mg/kg/injection, schedule: Q01DX Z (ip), vehicle: methylcellulose (MC)); 121 % of control (dose: 10.0 mg/kg/injection, schedule: Q01DX009 (ip), vehicle: saline); 114 % of control (dose: 13.5 mg/kg/injection, schedule: Q01DX Z (ip), vehicle: methylcellulose (MC)). For the same compound, the T/C is, setting by setting: (dose: 20.0 mg/kg/injection, schedule: Q01DX009 (ip), vehicle: saline) 101 % of control; (dose: 20.0 mg/kg/injection, schedule: Q01DX Z (ip), vehicle: methylcellulose (MC)) 90 % of control.

`CC(C)=NOC(=O)NCCCl`: the T/C runs as follows: under setting [5], 103 % of control; under setting [6], 101 % of control; under setting [7], 97 % of control.
